From US12679878B2, “CRF2 receptor agonists and their use in therapy” (SANOFI, priority 2020, dated 2026)
Read-outs that look alike come from different tables or passages of the source. Starred links: 1 amine or outer side, 2 acyl side, 3 side chain; linkers in the order of their positions; H or OH if unused. Non-standard residues stand in square brackets, D forms with d. Residues, ends and D or L forms follow the SMILES beside them. Groups on a side chain read outwards from the residue. *: point of attachment. C18 diacid = O=C(O)CCCCCCCCCCCCCCCCC(=O)*; γGlu = O=C(O)[C@H](CCC(=O)[*:2])N[*:1]; AEEA = NCCOCCOCC(=O)O; Aib = CC(C)(N)C(=O)O

How the values were obtained:
human CRF2α receptor = target: T1, human CRF2α receptor (Homo sapiens, UniProt Q13324); assay: cAMP agonism at human CRF2 α receptor in TeloHEAC cells (Example 7); assay type: cell-based; settings: cAMP HTRF, TeloHEAC cells stably expressing human CRF2 α
T1 construct: expressed in transfected cells; host or cells: TeloHEAC
T1 sequence (Q13324 1-411): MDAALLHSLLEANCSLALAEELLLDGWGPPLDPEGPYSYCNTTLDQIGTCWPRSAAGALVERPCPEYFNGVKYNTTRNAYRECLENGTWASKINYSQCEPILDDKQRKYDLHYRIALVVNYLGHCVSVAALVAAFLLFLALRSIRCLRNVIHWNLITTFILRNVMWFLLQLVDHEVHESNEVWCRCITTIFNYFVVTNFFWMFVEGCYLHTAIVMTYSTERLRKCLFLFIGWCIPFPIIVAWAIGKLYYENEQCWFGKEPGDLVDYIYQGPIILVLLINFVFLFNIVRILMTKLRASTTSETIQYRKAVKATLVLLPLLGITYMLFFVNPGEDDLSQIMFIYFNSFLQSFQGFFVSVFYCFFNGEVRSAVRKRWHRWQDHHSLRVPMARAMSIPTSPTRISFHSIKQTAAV
Method in brief: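 Cryopreserved cells are thawed, washed and resuspended in IBMX-containing (2 mM) HEPES-buffered HBSS with or without 0.1% HSA. Compound incubation runs 30 min at room temperature with 2000 cells per well, then cAMP is measured by time-resolved FRET. Potency is expressed as EC50, efficacy relative to urocortin 2 at 1000 nM.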

CRF1R receptor = target: T2, CRF1R receptor (Homo sapiens, UniProt P34998); assay: cAMP activity at anti-target CRF1R, CHO-K1 cell line clone 2 (Example 19.10); assay type: cell-based; settings: CRF1R CHO-K1 clone 2; for EC50: 0% HSA, read-out: EC50 [nM] 0% HSA; for Emax: 100% = Sauvagine at 100 nM
T2 construct: host or cells: CHO-K1 clone 2
T2 sequence (P34998 24-415): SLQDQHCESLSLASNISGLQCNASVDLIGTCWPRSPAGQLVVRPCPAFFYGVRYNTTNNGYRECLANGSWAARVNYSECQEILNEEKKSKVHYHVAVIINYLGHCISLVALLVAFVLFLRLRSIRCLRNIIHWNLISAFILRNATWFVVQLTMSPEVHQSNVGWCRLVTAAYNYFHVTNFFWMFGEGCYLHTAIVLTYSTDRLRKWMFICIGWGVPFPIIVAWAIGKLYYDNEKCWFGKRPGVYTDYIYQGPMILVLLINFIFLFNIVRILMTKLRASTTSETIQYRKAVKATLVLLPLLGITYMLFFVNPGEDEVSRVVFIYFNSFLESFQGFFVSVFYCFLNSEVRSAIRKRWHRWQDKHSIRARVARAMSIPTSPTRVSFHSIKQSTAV
Method in brief: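 A CRF1R-overexpressing CHO-K1 line (clone 2) was grown in F12/10% FBS/G418 and frozen in aliquots before use. The cAMP assay followed the preceding procedure, with 100% activation defined by Sauvagine at 100 nM.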

[1] = 0% HSA, read-out: EC50 [nM], 0% HSA
[2] = 0.1% HSA, read-out: EC50 [nM], 0.1% HSA

| Compound | EC50 (human CRF2α receptor; [1]) | EC50 (human CRF2α receptor; [2]) | EC50 (CRF1R receptor) | Emax (CRF1R receptor) |
| --- | --- | --- | --- | --- |
| CC[C@H](C)[C@H](N)C(=O)N[C@H](C(=O)N[C@@H](CC(C)C)C(=O)N[C@@H](CO)C(=O)N[C@@H](CC(C)C)C(=O)N[C@@H](CC(=O)O)C(=O)N[C@H](C(=O)N1CCC[C@H]1C(=O)N[C@H](C(=O)N[C@@H](CCCCN)C(=O)N[C@@H](CC(C)C)C(=O)N[C@@H](CCCCNC(=O)COCCOCCNC(=O)COCCOCCNC(=O)CC[C@H](NC(=O)CCCCCCCCCCCCCCCCC(=O)O)C(=O)O)C(=O)N[C@@H](CCC(N)=O)C(=O)N[C@H](C(=O)N[C@@H](CC(C)C)C(=O)N[C@@H](CC(C)C)C(=O)N[C@@H](CCCCN)C(=O)N[C@@H](CCC(N)=O)C(=O)N[C@@H](CCC(=O)O)C(=O)N[C@@H](CCCNC(=N)N)C(=O)N[C@@H](CCC(N)=O)C(=O)N[C@@H](CCCCN)C(=O)NC(C)(C)C(=O)N[C@@H](CCC(N)=O)C(=O)N[C@@H](CCCNC(=N)N)C(=O)N[C@@H](CCC(N)=O)C(=O)N[C@@H](CCCCN)C(=O)N[C@@H](C)C(=O)N[C@@H](CCC(=O)O)C(=O)N[C@H](C(=O)N[C@@H](CC(N)=O)C(=O)N[C@@H](CCCCN)C(=O)N[C@@H](CCC(N)=O)C(=O)N[C@H](C(=O)N[C@@H](CC(C)C)C(=O)N[C@@H](C)C(=O)N[C@@H](CCC(N)=O)C(=O)N[C@H](C(N)=O)C(C)C)[C@@H](C)CC)[C@@H](C)O)[C@@H](C)CC)[C@@H](C)CC)C(C)C)C(C)C [compound 108] (H-IVLSLDVPIKLK([AEEA-AEEA-γGlu-C18 diacid])QILLKQERQK[Aib]QRQKAETNKQILAQV-NH2; N-terminus assumed) | 0.23 nM |  | > 100 nM | -2% |
| CC[C@H](C)[C@H](N)C(=O)N[C@H](C(=O)N[C@@H](CC(C)C)C(=O)N[C@@H](CO)C(=O)N[C@@H](CC(C)C)C(=O)N[C@@H](CC(=O)O)C(=O)N[C@H](C(=O)N1CCC[C@H]1C(=O)N[C@H](C(=O)N[C@@H](CCCCN)C(=O)N[C@@H](CC(C)C)C(=O)N[C@@H](CCCCNC(=O)COCCOCCNC(=O)COCCOCCNC(=O)CC[C@H](NC(=O)CCCCCCCCCCCCCCCCC(=O)O)C(=O)O)C(=O)N[C@@H](CCC(N)=O)C(=O)N[C@H](C(=O)N[C@@H](CC(C)C)C(=O)N[C@@H](CC(C)C)C(=O)N[C@@H](CCCCN)C(=O)N[C@@H](CCC(N)=O)C(=O)N[C@@H](CCC(=O)O)C(=O)N[C@@H](CCCNC(=N)N)C(=O)N[C@@H](CCC(N)=O)C(=O)N[C@@H](CCCCN)C(=O)NC(C)(C)C(=O)N[C@@H](CCC(N)=O)C(=O)N[C@@H](CCCNC(=N)N)C(=O)N[C@@H](CCC(N)=O)C(=O)N[C@@H](CCC(N)=O)C(=O)N[C@@H](C)C(=O)N[C@@H](CCC(=O)O)C(=O)N[C@H](C(=O)N[C@@H](CC(N)=O)C(=O)N[C@@H](CCCCN)C(=O)N[C@@H](CCC(N)=O)C(=O)N[C@H](C(=O)N[C@@H](CC(C)C)C(=O)N[C@@H](C)C(=O)N[C@@H](CCC(N)=O)C(=O)N[C@H](C(N)=O)C(C)C)[C@@H](C)CC)[C@@H](C)O)[C@@H](C)CC)[C@@H](C)CC)C(C)C)C(C)C [compound 110] (H-IVLSLDVPIKLK([AEEA-AEEA-γGlu-C18 diacid])QILLKQERQK[Aib]QRQQAETNKQILAQV-NH2; N-terminus assumed) | 0.18 nM |  | > 100 nM | 5.4% |

Continued by falling EC50 (human CRF2α receptor; [1]), values first:

| EC50 (human CRF2α receptor; [1]) | EC50 (human CRF2α receptor; [2]) | EC50 (CRF1R receptor) | Emax (CRF1R receptor) | Compound |
| --- | --- | --- | --- | --- |
| 0.95 nM |  | > 100 nM | 1.1% | CC[C@H](C)[C@H](N)C(=O)N[C@H](C(=O)N[C@@H](CC(C)C)C(=O)N[C@@H](CO)C(=O)N[C@@H](CC(C)C)C(=O)N[C@@H](CC(=O)O)C(=O)N[C@H](C(=O)N1CCC[C@H]1C(=O)N[C@H](C(=O)N[C@@H](CCCCN)C(=O)N[C@@H](CC(C)C)C(=O)N[C@@H](CCCCNC(=O)COCCOCCNC(=O)COCCOCCNC(=O)CC[C@H](NC(=O)CCCCCCCCCCCCCCCCC(=O)O)C(=O)O)C(=O)N[C@@H](CCC(N)=O)C(=O)N[C@H](C(=O)N[C@@H](CC(C)C)C(=O)N[C@@H](CC(C)C)C(=O)N[C@@H](CCCCN)C(=O)N[C@@H](CCC(N)=O)C(=O)N[C@@H](CCC(=O)O)C(=O)N[C@@H](CCCNC(=N)N)C(=O)N[C@@H](CCC(N)=O)C(=O)N[C@@H](CCCCN)C(=O)NC(C)(C)C(=O)N[C@@H](CCC(N)=O)C(=O)N[C@@H](CCCNC(=N)N)C(=O)N[C@@H](CCC(=O)O)C(=O)N[C@@H](CCCCN)C(=O)N[C@@H](C)C(=O)N[C@@H](CCC(=O)O)C(=O)N[C@H](C(=O)N[C@@H](CC(N)=O)C(=O)N[C@@H](CCCCN)C(=O)N[C@@H](CCC(N)=O)C(=O)N[C@H](C(=O)N[C@@H](CC(C)C)C(=O)N[C@@H](C)C(=O)N[C@@H](CCC(N)=O)C(=O)N[C@H](C(N)=O)C(C)C)[C@@H](C)CC)[C@@H](C)O)[C@@H](C)CC)[C@@H](C)CC)C(C)C)C(C)C [compound 109] (H-IVLSLDVPIKLK([AEEA-AEEA-γGlu-C18 diacid])QILLKQERQK[Aib]QREKAETNKQILAQV-NH2) |
| 0.53 nM | 13.2 nM | > 100 nM | 5.1% | CC[C@H](C)[C@H](N)C(=O)N[C@H](C(=O)N[C@@H](CC(C)C)C(=O)N[C@@H](CO)C(=O)N[C@@H](CC(C)C)C(=O)N[C@@H](CC(=O)O)C(=O)N[C@H](C(=O)N1CCC[C@H]1C(=O)N[C@H](C(=O)N[C@@H](CCCCN)C(=O)N[C@@H](CC(C)C)C(=O)N[C@@H](CCCCNC(=O)COCCOCCNC(=O)COCCOCCNC(=O)CC[C@H](NC(=O)CCCCCCCCCCCCCCCCC(=O)O)C(=O)O)C(=O)N[C@@H](CCC(N)=O)C(=O)N[C@H](C(=O)N[C@@H](CC(C)C)C(=O)N[C@@H](CC(C)C)C(=O)N[C@@H](CCC(=O)O)C(=O)N[C@@H](CCC(N)=O)C(=O)N[C@@H](CCC(=O)O)C(=O)N[C@@H](CCCNC(=N)N)C(=O)N[C@@H](CCC(N)=O)C(=O)N[C@@H](CCCCN)C(=O)NC(C)(C)C(=O)N[C@@H](CCC(N)=O)C(=O)N[C@@H](CCCNC(=N)N)C(=O)N[C@@H](CCC(=O)O)C(=O)N[C@@H](CCC(N)=O)C(=O)N[C@@H](C)C(=O)N[C@@H](CCC(=O)O)C(=O)N[C@H](C(=O)N[C@@H](CC(N)=O)C(=O)N[C@@H](CCCCN)C(=O)N[C@@H](CCC(N)=O)C(=O)N[C@H](C(=O)N[C@@H](CC(C)C)C(=O)N[C@@H](CCC(=O)O)C(=O)N[C@@H](CCCNC(=N)N)C(=O)N[C@H](C(N)=O)C(C)C)[C@@H](C)CC)[C@@H](C)O)[C@@H](C)CC)[C@@H](C)CC)C(C)C)C(C)C [compound 106] (H-IVLSLDVPIKLK([AEEA-AEEA-γGlu-C18 diacid])QILLEQERQK[Aib]QREQAETNKQILERV-NH2) |
| 0.41 nM | 15.3 nM | > 100 nM | 15.4% | CC[C@H](C)[C@H](N)C(=O)N[C@H](C(=O)N[C@@H](CC(C)C)C(=O)N[C@@H](CO)C(=O)N[C@@H](CC(C)C)C(=O)N[C@@H](CC(=O)O)C(=O)N[C@H](C(=O)N1CCC[C@H]1C(=O)N[C@H](C(=O)N[C@@H](CCCCN)C(=O)N[C@@H](CC(C)C)C(=O)N[C@@H](CCCCNC(=O)COCCOCCNC(=O)COCCOCCNC(=O)CC[C@H](NC(=O)CCCCCCCCCCCCCCCCC(=O)O)C(=O)O)C(=O)N[C@@H](CCC(N)=O)C(=O)N[C@H](C(=O)N[C@@H](CC(C)C)C(=O)N[C@@H](CC(C)C)C(=O)N[C@@H](CCC(=O)O)C(=O)N[C@@H](CCC(N)=O)C(=O)N[C@@H](CCC(=O)O)C(=O)N[C@@H](CCCNC(=N)N)C(=O)N[C@@H](CCC(N)=O)C(=O)N[C@@H](CCCCN)C(=O)NC(C)(C)C(=O)N[C@@H](CCC(N)=O)C(=O)N[C@@H](CCCNC(=N)N)C(=O)N[C@@H](CCC(N)=O)C(=O)N[C@@H](CCC(N)=O)C(=O)N[C@@H](C)C(=O)N[C@@H](CCC(=O)O)C(=O)N[C@H](C(=O)N[C@@H](CC(N)=O)C(=O)N[C@@H](CCCCN)C(=O)N[C@@H](CCC(N)=O)C(=O)N[C@H](C(=O)N[C@@H](CC(C)C)C(=O)N[C@@H](C)C(=O)N[C@@H](CCC(N)=O)C(=O)N[C@H](C(N)=O)C(C)C)[C@@H](C)CC)[C@@H](C)O)[C@@H](C)CC)[C@@H](C)CC)C(C)C)C(C)C [compound 105] (H-IVLSLDVPIKLK([AEEA-AEEA-γGlu-C18 diacid])QILLEQERQK[Aib]QRQQAETNKQILAQV-NH2) |
